Columns and labels:
Test in all cases: Test C greenhouse herbicide test, pre- and postemergence
Type in all cases: in vivo
[1] = system: lambsquarters (Chenopodium album)
How it was run: (§1)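 Visual ratings on a 0 to 100 scale (0 = no effect, 100 = complete control) versus untreated controls, scored 13–15 d after treatment. Soil-applied preemergence to seeded loam/sand; foliar postemergence to 1- to 4-leaf plants (2–18 cm) in peat-vermiculite mix; compounds formulated in solvent plus surfactant.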

[2] = system: velvetleaf (Abutilon theophrasti)
How it was run: as §1

[3] = system: crabgrass, large (large crabgrass, Digitaria sanguinalis)
How it was run: as §1

corn (Zea mays) = system: corn (Zea mays)
How it was run: as §1

[4] = system: waterhemp (common waterhemp, Amaranthus rudis)
How it was run: as §1

[5] = system: ryegrass, Italian (Italian ryegrass, Lolium multiflorum)
How it was run: as §1

[6] = system: pigweed (Amaranthus retroflexus)
How it was run: as §1

[7] = system: morningglory (Ipomoea coccinea)
How it was run: as §1

[8] = system: wheat (winter wheat, Triticum aestivum)
How it was run: as §1

[9] = system: ragweed (common ragweed, Ambrosia elatior)
How it was run: as §1

[10] = system: oilseed rape (Brassica napus)
How it was run: as §1

[11] = system: galium (catchweed bedstraw, Galium aparine)
How it was run: as §1

[12] = system: barnyardgrass (Echinochloa crus-galli)
How it was run: as §1

[13] = system: blackgrass (Alopecurus myosuroides)
How it was run: as §1

[14] = system: foxtail, giant (giant foxtail, Setaria faberii)
How it was run: as §1

[15] = Postemergence, 31 g ai/ha, 0 to 100 scale (0 no effect, 100 complete control)
[16] = Postemergence, 125 g ai/ha, scale 0 to 100, 0 is no effect, 100 is complete control
[17] = Postemergence, 250 g ai/ha, scale 0 to 100, 0 no effect, 100 complete control, 13 to 15 d
[18] = Preemergence, 31 g ai/ha, scale 0 to 100, 0 is no effect, 100 is complete control
[19] = Preemergence, 62 g ai/ha, scale 0 to 100, 0 is no effect, 100 is complete control
[20] = Preemergence, 125 g ai/ha, scale 0 to 100, 0 is no effect, 100 is complete control
[21] = Preemergence, 250 g ai/ha, scale 0 to 100, 0 no effect, 100 complete control
[22] = postemergence, 62 g ai/ha, scale 0 to 100, 0 no effect, 100 complete control

`COC(=O)Oc1c(C)nn(C)c(=O)c1-c1c(C)sc2ccc(C)cc12` [Compound 80] was tested, and the “Lambsquarters plant response rating” value [1, 15] was 95, the “Plant response rating, Lambsquarters” value [1, 16] was 98 and the “Plant response rating, Lambsquarters” value [1, 17] was 100. For the same compound, the “Plant response rating, Lambsquarters” value [1, 18] was 90, the “Plant response rating, Lambsquarters” value [1, 19] was 90 and the “Plant response rating, Lambsquarters” value [1, 20] was 90. The “Lambsquarters plant response rating” value [1, 21] was 98, the “Lambsquarters plant response rating” value [1, 22] was 95 and the “Velvetleaf plant response rating” value [2, 15] was 70. The “Plant response rating, Velvetleaf” value [2, 16] was 55, the “Plant response rating, Velvetleaf” value [2, 17] was 90 and the “Plant response rating, Velvetleaf” value [2, 18] was 55. For the same compound, the “Plant response rating, Velvetleaf” value [2, 19] was 85, the “Plant response rating, Velvetleaf” value [2, 20] was 90 and the “Velvetleaf plant response rating” value [2, 21] was 95. The “Velvetleaf plant response rating” value [2, 22] was 90, the “Crabgrass, Large plant response rating” value [3, 15] was 10 and the “Plant response rating, Crabgrass, Large” value [3, 16] was 30. The “Plant response rating, Crabgrass, Large” value [3, 17] was 35, the “Plant response rating, Crabgrass, Large” value [3, 18] was 10 and the “Plant response rating, Crabgrass, Large” value [3, 19] was 15. For the same compound, the “Plant response rating, Crabgrass, Large” value [3, 20] was 40, the “Crabgrass, Large plant response rating” value [3, 21] was 75 and the “Crabgrass, Large plant response rating” value [3, 22] was 25. The “Corn plant response rating” value (corn (Zea mays); [15]) was 0, the “Plant response rating, Corn” value (corn (Zea mays); [16]) was 5 and the “Plant response rating, Corn” value (corn (Zea mays); [17]) was 5. For the same compound, the “Plant response rating, Corn” value (corn (Zea mays); [18]) was 0, the “Plant response rating, Corn” value (corn (Zea mays); [19]) was 10 and the “Plant response rating, Corn” value (corn (Zea mays); [20]) was 10. For the same compound, the “Corn plant response rating” value (corn (Zea mays); [21]) was 25, the “Corn plant response rating” value (corn (Zea mays); [22]) was 5 and the “Waterhemp plant response rating” value [4, 15] was 85. The “Plant response rating, Waterhemp” value [4, 16] was 85, the “Plant response rating, Waterhemp” value [4, 17] was 95 and the “Plant response rating, Waterhemp” value [4, 18] was 100. For the same compound, the “Plant response rating, Waterhemp” value [4, 19] was 100, the “Plant response rating, Waterhemp” value [4, 20] was 100 and the “Waterhemp plant response rating” value [4, 21] was 100. For the same compound, the “Waterhemp plant response rating” value [4, 22] was 80, the “Ryegrass, Italian plant response rating” value [5, 15] was 80 and the “Plant response rating, Ryegrass, Italian” value [5, 16] was 85. The “Plant response rating, Ryegrass, Italian” value [5, 17] was 85, the “Plant response rating, Ryegrass, Italian” value [5, 18] was 35 and the “Plant response rating, Ryegrass, Italian” value [5, 19] was 70. For the same compound, the “Plant response rating, Ryegrass, Italian” value [5, 20] was 90, the “Ryegrass, Italian plant response rating” value [5, 21] was 90 and the “Ryegrass, Italian plant response rating” value [5, 22] was 85. For the same compound, the “Pigweed plant response rating” value [6, 15] was 85, the “Plant response rating, Pigweed” value [6, 16] was 95 and the “Plant response rating, Pigweed” value [6, 17] was 95. For the same compound, the “Plant response rating, Pigweed” value [6, 18] was 100, the “Plant response rating, Pigweed” value [6, 19] was 100 and the “Plant response rating, Pigweed” value [6, 20] was 100. The “Pigweed plant response rating” value [6, 21] was 100, the “Pigweed plant response rating” value [6, 22] was 90 and the “Morningglory plant response rating” value [7, 15] was 100. For the same compound, the “Plant response rating, Morningglory” value [7, 16] was 100, the “Plant response rating, Morningglory” value [7, 17] was 98 and the “Plant response rating, Morningglory” value [7, 18] was 85. The “Plant response rating, Morningglory” value [7, 19] was 90, the “Plant response rating, Morningglory” value [7, 20] was 90 and the “Morningglory plant response rating” value [7, 21] was 98. The “Morningglory plant response rating” value [7, 22] was 100, the “Wheat plant response rating” value [8, 15] was 0 and the “Plant response rating, Wheat” value [8, 16] was 10. The “Plant response rating, Wheat” value [8, 17] was 15, the “Plant response rating, Wheat” value [8, 18] was 0 and the “Plant response rating, Wheat” value [8, 19] was 0. The “Plant response rating, Wheat” value [8, 20] was 0, the “Wheat plant response rating” value [8, 21] was 0 and the “Wheat plant response rating” value [8, 22] was 5. The “Ragweed plant response rating” value [9, 15] was 98, the “Plant response rating, Ragweed” value [9, 16] was 98 and the “Plant response rating, Ragweed” value [9, 17] was 98. The “Plant response rating, Ragweed” value [9, 18] was 90, the “Plant response rating, Ragweed” value [9, 19] was 95 and the “Plant response rating, Ragweed” value [9, 20] was 95. For the same compound, the “Ragweed plant response rating” value [9, 21] was 100, the “Ragweed plant response rating” value [9, 22] was 90 and the “Oilseed Rape plant response rating” value [10, 15] was 5. The “Plant response rating, Oilseed Rape” value [10, 16] was 60, the “Plant response rating, Oilseed Rape” value [10, 17] was 80 and the “Plant response rating, Oilseed Rape” value [10, 18] was 0. The “Plant response rating, Oilseed Rape” value [10, 19] was 30, the “Plant response rating, Oilseed Rape” value [10, 20] was 50 and the “Oilseed Rape plant response rating” value [10, 21] was 0. For the same compound, the “Oilseed Rape plant response rating” value [10, 22] was 50, the “Galium plant response rating” value [11, 15] was 90 and the “Plant response rating, Galium” value [11, 16] was 95. The “Plant response rating, Galium” value [11, 17] was 95, the “Plant response rating, Galium” value [11, 18] was 90 and the “Plant response rating, Galium” value [11, 19] was 95. The “Plant response rating, Galium” value [11, 20] was 95, the “Galium plant response rating” value [11, 21] was 95 and the “Galium plant response rating” value [11, 22] was 95. For the same compound, the “Barnyardgrass plant response rating” value [12, 15] was 25, the “Plant response rating, Barnyardgrass” value [12, 16] was 35 and the “Plant response rating, Barnyardgrass” value [12, 17] was 35. For the same compound, the “Plant response rating, Barnyardgrass” value [12, 18] was 10, the “Plant response rating, Barnyardgrass” value [12, 19] was 65 and the “Plant response rating, Barnyardgrass” value [12, 20] was 75. For the same compound, the “Barnyardgrass plant response rating” value [12, 21] was 85, the “Barnyardgrass plant response rating” value [12, 22] was 30 and the “Blackgrass plant response rating” value [13, 15] was 15. For the same compound, the “Plant response rating, Blackgrass” value [13, 16] was 40, the “Plant response rating, Blackgrass” value [13, 17] was 50 and the “Plant response rating, Blackgrass” value [13, 18] was 70. For the same compound, the “Plant response rating, Blackgrass” value [13, 19] was 80, the “Plant response rating, Blackgrass” value [13, 20] was 80 and the “Blackgrass plant response rating” value [13, 21] was 90. The “Blackgrass plant response rating” value [13, 22] was 35, the “Foxtail, Giant plant response rating” value [14, 15] was 25 and the “Plant response rating, Foxtail, Giant” value [14, 16] was 70. For the same compound, the “Plant response rating, Foxtail, Giant” value [14, 17] was 90, the “Plant response rating, Foxtail, Giant” value [14, 18] was 70 and the “Plant response rating, Foxtail, Giant” value [14, 19] was 85. The “Plant response rating, Foxtail, Giant” value [14, 20] was 85, the “Foxtail, Giant plant response rating” value [14, 21] was 98 and the “Foxtail, Giant plant response rating” value [14, 22] was 55.

From US10597388B2, “Pyridazinone herbicides” (FMC CORPORATION, priority 2014, dated 2020)
